Measurements published in patent publication US6943025B2, “Method for identifying genes involved in cell proliferation” (Children's Medical Center Corporation, priority 2001, dated 2005).

Experiments:
zebrafish embryos = settings: literature reports; cited from earlier work
Wild-type fish = settings: zebrafish, in vivo
[1] = system: zebrafish mutant strains and wild-type; experiment: Carcinogenesis assay in mutant strains (carcinogen induced tumorigenesis, Table II); settings: 21 day-old fry
[2] = SQW 61, 5.0 ppm DMBA 24 hours, three months post-treatment
[3] = SQW 213, 5.0 ppm DMBA 24 hours, three months post-treatment
[4] = SQW 226, 5.0 ppm DMBA 24 hours, three months post-treatment
[5] = SQW 280, 5.0 ppm DMBA 24 hours, three months post-treatment
[6] = WT, 5.0 ppm DMBA 24 hours, 6 months post-treatment

CC[C@@]1(O)C(=O)OCc2c1cc1n(c2=O)Cc2cc3ccccc3nc2-1 [Camptothecin]
effect on zebrafish embryos (checkpoint, apoptosis) (zebrafish embryos): produces DNA strand breaks, resulting in subsequent apoptosis

Cc1c2ccccc2c(C)c2c1ccc1ccccc12 [DMBA, 7,12 dimethylbenzanthracene]
fish that developed tumors (Wild-type fish; wild-type): 10.4%
fish that developed tumors / fish treated (Wild-type fish; wild-type): 9/86
tumor seen in tissue sections (histology) (Wild-type fish): medulloblastoma
tumor types produced (Wild-type fish): more brain and liver tumors
# tumors [1, 2]: 24
% tumors [1, 2]: 18%
# tumors [1, 3]: 2
% tumors [1, 3]: 7%
# tumors [1, 4]: 4
% tumors [1, 4]: 20%
# tumors [1, 5]: 6
% tumors [1, 5]: 12%
# tumors [1, 6]: 2
% tumors [1, 6]: 5%

C[C@@]1(CO)[C@H](O)CC[C@@]2(C)[C@H]1CC[C@H]1C[C@@H]3C[C@@]12CC[C@]3(O)CO [aphidicolin]
effect on zebrafish embryos (checkpoint, apoptosis) (zebrafish embryos): cause apoptosis

NC(=O)NO [hydoxyurea]
effect on zebrafish embryos (checkpoint, apoptosis) (zebrafish embryos): cause apoptosis

COC(=O)Nc1nc2cc(C(=O)c3cccs3)ccc2[nH]1 [nocodozolc]
effect on zebrafish embryos (checkpoint, apoptosis) (zebrafish embryos): destabilized microtubules and the activation of a mitotic checkpoint
